Experimental data reported in EP1061896B1, “COSMETIC METHOD OF TREATING SKIN” (UNILEVER PLC, priority 1998, dated 1999).
Read-outs that look alike come from different tables or passages of the source.

Key:
PGE2 [1] = experiment: Fibroblast PGE2 assay, PMA-induced; assay type: cell-based; settings: human skin fibroblasts, N=4
Method: Intracellular adhesion molecules (ICAM) and PEG2 production by human skin fibroblasts can be induced by the inflammatory stimulus PMA (phorbal myristate acetate). PMA represents an external stressor which induces oxidative stress and inflammatory responses in cells. This model is used to model inflammation in vivo.
Primary human foreskin fibroblasts at passage 2 (P2) were seeded into 96-well plates at 10000 cells/well and maintained for 24 hours in an atmosphere of 5% carbon dioxide in Dulbeccos Modified Eagles Medium (DMEM) supplemented with 10% foetal calf serum. […] Phorbal myristate acetate (PMA) (Sigma) was added to the media and the cells incubated for a further 24 hours. […] The fibroblasts/media were then analysed as described below immediately or snap frozen in liquid nitrogen and stored at -70°C for future analysis. The cells were then counted and data from the dot-blot analysis subsequently standardised to cell number.
Prostaglandin E2 (PGE2) assay: Volumes of 50 µl culture medium were taken for PGE2 assay after gently shaking the culture plate. PGE2 levels in the medium were determined with a Biotrak PGE2 immunoassay kit (Amersham, UK). The assay is based on the competition between unlabelled PGE2 in the sample and a fixed quantity of horseradish peroxidase labelled PGE2 for a limited amount of fixed PGE2 specific antibody. Concentrations of unlabelled sample PGE2 are determined according to a standard curve which was obtained at the same time.

PGE2 [2] = experiment: Keratinocyte PGE2 assay (basal release, enzyme-linked immunoassay); assay type: cell-based; settings: 24 hours, unstimulated keratinocytes, n=4, Control 197.9
Method: This was then replaced with KGM without hydrocortisone for 24-48 hours. No petroselinic acid was added to the control cells. […] At the end of the incubation the medium was harvested and assayed for the basal release of the pro-inflammatory PGE2 by enzyme-linked immuno assay using a commercial PGE2 kit (Amersham, Buckinghamshire, England).
The anti-inflammatory potential of the test compounds were assessed by the ability of the compounds to reduce the basal levels of secreted PGE2 as compared to the control. Statistical significance was determined using the Student's t-test.

Keratinocytes [3] = experiment: Keratinocyte SDS viability assay (Neutral Red method); assay type: cell-based; settings: 24 hours, n=8
Method: (§1) After incubating for 24 hours the medium was removed and the viability determined by the Neutral Red method.

[4] = Cell viability assay by neutral red dye absorption in the pigmentation assay; assay type: cell-based; settings: mouse, b16-f1 cells, n=4, read-out: Neutral Red Cell Viability % Control
Method: (§2) • * Cell maintenance B16-F1 mouse melanoma cells (American Type Culture Collection, Maryland, USA) were maintained in 75 cm^2 culture flasks in RPMI 1640 medium (ICN-Flow, cat. no. 12-60-54) supplemented with L-glutamine (4 mM) and 10% foetal bovine serum (FBS) at 37°C in a water saturated, 5% CO2 in air atmosphere. Cells were passaged twice weekly. • * Pigmentation Assay Subconfluent B16 cells were seeded in 96 well microtiter plates at a density of 5000 cells/well and cultured overnight in DMEM (Life Technologies, NY) containing 10% foetal bovine serum and 1% penicillin/streptomycin without phenol red at 37°C under 5% CO2. After 24 hours, the media was replaced with fresh media containing the test materials or vehicle controls. Cells were incubated for 72 hours at which time melanin was visible in the control wells. Next, the melanin containing media from each well was transferred to a clean 96 well plate and quantified by reading the absorbance at 530 nm using a microplate spectrophotometer (Dynatech MR5000) and correcting for the baseline absorption of fresh medium. As the corrected absorption is proportional to the melanin concentration the percentage pigmentation for a skin lightening test substance can be calculated as: % pigmentation = (OD530 test/OD530 ref) x 100% [formula] where OD530 test and OD530 ref indicate the average corrected absorption of the medium from the wells with the test substance and that of the medium from the wells without the test substance. The percentage inhibition caused by the test substance is then 100 - % pigmentation. • * Cell viability assay Melanin production may be reduced by inhibition of melanogenesis but it may also be affected by cytotoxicity or cell proliferation. To test whether this occurred cell viability was tested by neutral red dye absorption. Neutral red is a water soluble dye that passes through the intact plasma membrane and becomes concentrated in the lysosomes in intact cells. Total neutral red dye uptake is proportional to the number of viable cells in culture. Immediately following the removal of medium for melanin analysis from the microtitre wells, 200 µl fresh prewarmed neutral red dye (ex. Sigma, UK, Cat. Nr 2889) at 25 µg/ml medium was applied to the cells and incubated for 3 hours as for cell maintenance. Dye which had not been taken up by the cells was removed by inversion of the plate and tapping on abscrbent paper. The cells were washed with 200 µl PBS, which was then removed again. 100 µl solvent (50% H2O, 49% ethanol, 1% acetic acid) was added. After 20 minutes at ambient temperature each plate was shaken for 5 seconds on a microtitre plate shaker. The absorption was measured as described above.

Keratinocytes [5] = experiment: Keratinocyte viability by neutral red uptake after the PGE2 assay; assay type: cell-based; settings: 24 hours, at the concentrations tested (0.1 and 1 µM)
Method: as §1
The cells were then tested for viability by the neutral red up-take method described in example 2 above.

[6] = test system: B16-F1 mouse melanoma cells; experiment: Pigmentation assay (melanin in media, absorbance at 530 nm); assay type: cell-based; settings: 72 hours, n=4, read-out: Melanin in Media % Control
Method: as §2

procollagen-I = experiment: Immunohistochemical analysis of forearm skin biopsies after topical treatment: procollagen-I expression; assay type: in vivo, human; settings: compared with placebo forearm
Description: (§3) Two groups of women were recruited with identical or nearly identical degrees of mild to moderate photodamage on each outer forearm. They were supplied with 0.05% retinoic acid in a moisturising base (Retinova®) and also with a colour matched moisturising cream with similar sensory characteristics (Dermacare® lotion), but no active ingredients, as a placebo control. Each participant of the two groups applied the Retinova® to one outer forearm and placebo (Dermacare®) to the other outer forearm. Group 1 applied the products daily to their outer forearms for 14 weeks and the Group 2 applied the products to their outer forearms for 28 weeks. At the end of the studies two full thickness 4mm punch biopsies were taken from the treated areas of each forearm. Immunohistochemical analysis of the biopsy tissue taken from the participants was performed to identify the effect of retinoic acid treatment on the expression of the skin extracellular matrix components, decorin and procollagen-I, as compared with the placebo treated forearms. The following procedure was followed:
(§4) Antibody dilution buffer for wax sections was composed of Tris Buffered Saline (TBS), 3% bovine serum albumin (BSA), 0.05% Triton X-100 and 0.05% sodium azide. […]

decorin = experiment: Immunohistochemical analysis of forearm skin biopsies after topical treatment: decorin expression; assay type: in vivo, human; settings: compared with placebo forearm
Description: as §3, §4

[7] = Group 1 after 14 weeks, 16 participants, 0.05% retinoic acid (Retinova®) daily on outer forearm
[8] = Group 2 after 28 weeks, 15 participants, 0.05% retinoic acid (Retinova®) on outer forearm

CCCCCCCCCCCCCC(=O)O[C@@H]1[C@@H](C)[C@@]2(O)[C@@H](C=C(CO)C[C@]3(O)C(=O)C(C)=C[C@@H]23)[C@@H]2C(C)(C)[C@]12OC(C)=O [PMA, phorbal myristate acetate, reference compound] showed a PGE2 (PGE2 [1]; PMA (10nM) alone, Control 32±6) of 2371 ± 241 pg/mL.

With CCCCCCCCCCC/C=C\CCCCC(=O)O [Petroselinic Acid, Petroselinic acid] the “Keratinocyte PGE2 Levels Mean” value (PGE2 [2]; PA 0.1 µM) was 150.1 pg/well, the “Keratinocyte PGE2 Levels Mean” value (PGE2 [2]; PA 1 µM) was 117.8 pg/well and the “Keratinocyte viability % of control Mean” value (Keratinocytes [3]; SDS 2 µg/ml + PA 0.1 µM) was 94.5 % of control. For the same compound, the “Keratinocyte viability % of control Mean” value (Keratinocytes [3]; SDS 2 µg/ml + PA 1.0 µM) was 84.1 % of control, the “Keratinocyte viability % of control Mean” value (Keratinocytes [3]; SDS 2 µg/ml + PA 10 µM) was 85.8 % of control and the viability at 72 h ([4]; 0.01%) was 105%. The viability at 72 h ([4]; 0.013%) was 105%, the viability at 72 h ([4]; 0.02%) was 103% and the viability at 72 h ([4]; 0.04%) was 69.9%. The viability at 72 h ([4]; 0.1%) was 1%, the Cell viability (Keratinocytes [5]) was “not found to be adversely effected” and the PGE2 (PGE2 [1]; PMA (10nM) + PA 0.1uM) was 500 ± 12 pg/mL. It also gave a PGE2 (PGE2 [1]; PMA (10nM) + PA 1uM) of 486 ± 93 pg/mL, a PGE2 (PGE2 [1]; PMA (10nM) + PA 10uM) of 233 ± 139 pg/mL and a PGE2 (PGE2 [1]; PMA (10nM) + PA 100uM) of 117 ± 39 pg/mL. For the same compound, the activity at 0.01 % ([6]; 0.01%) was 79.5%, the activity at 0.013 % ([6]; 0.013%) was 40.4% and the activity at 0.02 % ([6]; 0.02%) was 55.3%. For the same compound, the activity at 0.04 % ([6]; 0.04%) was 3.9% and the activity at 0.1 % ([6]; 0.1%) was 19.3%.

In the case of CC1=C(/C=C/C(C)=C/C=C/C(C)=C/C(=O)O)C(C)(C)CCC1 [Retinoic Acid, retinoic acid], the “No. of Participants showing marked increase in expression of procollagen-I” value (procollagen-I; [7]) is reported as 9, the “No. of Participants showing marked increase in expression of procollagen-I” value (procollagen-I; [8]) is reported as 10 and the “No. of Participants showing marked increase in expression of decorin” value (decorin; [7]) is reported as 10. The “No. of Participants showing marked increase in expression of decorin” value (decorin; [8]) was 15.

In the case of CCCCCCCCCCCCOS(=O)(=O)[O-].[Na+] [SDS, sodium dodecyl sulphate, reference compound], the “Keratinocyte viability % of control Mean” value (Keratinocytes [3]; SDS 2 µg/ml alone (PA 0 µM)) is reported as 55.8 % of control.
